Experimental data from patent US20140066431A1, “Benzoxazepines as Inhibitors of PI3K/mTOR and Methods of Their Use and Manufacture” (Exelixis, Inc., priority 2010, published 2014).
pIC50: −log10 of the molar value. Where two headings read alike, the source gives them in different places.

Assays:
[1] = test system: T-47D cells (PI3Kα-H1047R mutant); test: pAKT (T308) ELISA assay, T-47D; assay type: cell-based; conditions: Homo sapiens, T47D
Protocol: In another embodiment, the pAKT ELISA Assay was performed by seeding cells onto 96-well plates (Corning, 3904) in their respective growth media at the densities listed in Table 3. Cells were incubated at 37° C., 5% CO2 for 48 h (except MDA-MB-453 cells which were cultured in the absence of CO2). Compounds were serially diluted in DMSO and subsequently diluted in serum-free DMEM. Test compounds were added to cells in serum-free DMEM at a final concentration of 0.3% DMSO and incubated for 3 h. Cells were lysed with 130 μL of ice-cold RIPA lysis buffer (50 mM Tris-HCl, pH 7.5; 0.5% sodium deoxycholic acid; 1% Triton X-100; 0.1% SDS; 150 mM NaCl) with protease and phosphatase inhibitors (1 mM EDTA, 1 mM NaF, 20 mM β-glycerophosphate, 1 mM Na-orthovanadate, Complete-Mini EDTA-free, Roche, 11836170001, and Phosphatase Inhibitor Cocktail I, Sigma, P2850), directly in 96-well plates. Cells were lysed on ice for 60-120 min at 4° C. The supernatants were added directly to capture ELISA plates previously pre-coated with rabbit anti-AKT capture antibody. […] The wells were measured for luminescence using a Wallac plate reader at wavelength of 560 nm. After normalization of pAKT signal to total AKT1 signal, IC50 values were determined relative to the DMSO-treated control.

PI3Kα-mutated models = test: Growth factor induced AKT phosphorylation compared across PI3Kα-mutated models; assay type: cell-based; conditions: cell lines of Table 6
Protocol: Cells were incubated at 37° C., 5% CO2 for 48 h (except MDA-MB-453 cells which were cultured in the absence of CO2). Compounds were serially diluted in DMSO and subsequently diluted in serum-free DMEM. Test compounds were added to cells in serum-free DMEM at a final concentration of 0.3% DMSO and incubated for 3 h. Cells were lysed with 130 μL of ice-cold RIPA lysis buffer (50 mM Tris-HCl, pH 7.5; 0.5% sodium deoxycholic acid; 1% Triton X-100; 0.1% SDS; 150 mM NaCl) with protease and phosphatase inhibitors (1 mM EDTA, 1 mM NaF, 20 mM β-glycerophosphate, 1 mM Na-orthovanadate, Complete-Mini EDTA-free, Roche, 11836170001, and Phosphatase Inhibitor Cocktail I, Sigma, P2850), directly in 96-well plates. Cells were lysed on ice for 60-120 min at 4° C. The supernatants were added directly to capture ELISA plates previously pre-coated with rabbit anti-AKT capture antibody. ELISA assays for pAKT(T308) and total AKT were performed with the pAKT(T308) ELISA kit (Cell Signaling Technology, 7144) and AKT1 ELISA kit (Cell Signaling Technology, 7142). For the pAKT(T308) ELISA, 85 μL of cell lysate was added to each well. For the total AKT1 ELISA, 15 μL of cell lysate and 85 μL of Starting Block buffer (Pierce, 37543) were added to each well.
Cells were incubated at 37° C., 5% CO2 for 48 h (except MDA-MB-453 cells which were cultured in the absence of CO2). […]

SMILES: Cc1cc(C(C)Nc2ccccc2)c2nc(N3CCOCC3)cc(=O)n2c1 (stereo not drawn) [TGX-221, 7-methyl-2-(4-morpholinyl)-9-[1-(phenylamino)ethyl]-4H-pyrido[1,2-a]pyrimidin-4-one]
- pIC50 ([1]; IGF1 stimulation, Table 5, read-out: pAKT (T308) IC50 T-47D PI3Kα H1047R IGF1): 4.55
- pIC50 ([1]; PI3KαH1047R, IGF1, Table 6, read-out: Cellular pAKT (T308) IC50 T-47D): 4.55
- effect on PI3Kα mediated activity in these cell models (PI3Kα-mutated models): no effect
